Data on three molecules can be found in patent publication US9388147B2 (Receptos, Inc., priority 2009, dated 2016).

Where a name gives a salt, the structure may show the parent alone.

The nature of data set [1]: Determination of absolute oral bioavailability in rats. It is filed as in vivo, Sprague-Dawley rat. The conditions noted are these: non-fasted female Sprague-Dawley rats, oral solution 0.3 mg/kg (85), 2 mg/kg (49, 50), iv 0.3 mg/kg (49, 50), 0.8 mg/kg racemic 85/86. The protocol: All pharmacokinetic studies were conducted in non-fasted female Sprague-Dawely rats (Simonsen Laboratories or Harlan Laboratories). Rats were housed in an ALAAC accredited facility and the research was approved by the facilities Institutional Animal Care and Use Committee (IACUC). The animals were acclimated to the laboratory for at least 48 h prior to initiation of experiments.
Compounds were formulated in 5% DMSO/5% Tween20 and 90% purified water (intravenous infusion) or 5% DMSO/5% Tween20 and 90% 0.1N HCL (oral gavage). The concentration of the dosing solutions was verified by HPLC-UV. For intravenous dosing, compounds were administered by an infusion pump into the jugular vein over one minute to manually restrained animals (n=4 rats/compound). The intravenous doses were 0.8 for a 1:1 mixture (racemic) of 85 and 86, and 0.3 and 0.3 mg/kg for compounds 49 and 50, respectively. Oral dosing was by gavage using a standard stainless steel gavage needle (n=2-4 rats/compound). The oral solution doses were 0.3, 2 and 2 mg/kg for compounds 85, 49 and 50, respectively. For both routes of administration, blood was collected at eight time-points after dosing with the final sample drawn 24 h post dose. Aliquots of the blood samples were transferred to polypropylene 96-well plate and frozen at −20° C. until analysis. […]
Concentrations in the rat pharmacokinetic samples were determined using a standardized HPLC-LC/MS/MS method relative to the eight point standard curve. […] Collision energies used to generate daughter ions ranged between 29 and 39 V. Peak area ratios obtained from MRM of the mass transitions specific for each compound were used for quantification. The limit of quantification of the method was typically 5 nM. Data were collected and analyzed using Analyst software version 1.4.2.
Blood concentration versus time data were analyzed using non-compartmental methods (WinNonlin version 5.2; model 200 for oral dosing and model 202 for intravenous infusion). Absolute oral bioavailability (%) was calculated using the following expression: (Oral AUC×IV Dose)/(IV AUC×Oral Dose)×100. […]

Data set [2] concerns the target T1, S1P1 R120A/E121A (Homo sapiens, UniProt P21453, E121A/R120A).
T1 construct: expressed in transfected cells; host or cells: CHOK1
Put plainly: Phosphorylated-ERK1/2 In Cell Western, S1P1 R120A/E121A mutant in CHOK1 cells. It is filed as cell-based. The protocol: (§1) A. Quick-change mutagenesis with PfuTurbo DNA polymerase (Stratagene) was conducted using S1P1/pcDNA3.1 (Missouri S&T cDNA Resource Centre) as the template. Primers were as follows: […]
(§2) PCR conditions were 15 cycles with the following parameters: 95° C. 30 sec, 58° C. 30 sec, 68° C. for 60 sec. All constructs were sequence verified.
(§3) CHOK1 cells were transfected using Fugene (Roche). Stably expressing mixed pools were selected with 2 mg/ml G418. Expression of functional S1P1/EDG1 receptor was confirmed by cell surface FACS with a S1P1 antibody (R&D Systems, clone 218713). Stable pools were seeded at 40,000 cells/well in a clear bottom 96-well tray, and incubated at 37° C. in 5% CO2 for 18 hrs. Cells were serum-starved in FreeStyle 293 medium (Invitrogen) for 4-6 h, then incubated for 5 min with a dose response of compound, in duplicate. Cells were fixed with 4% paraformaldehyde for 20 min, permeabilized with 0.1% Triton X-100 in PBS (4×5 min washes) and blocked for 1 h in Odyssey Blocking Buffer (LI-COR). All incubations were at room temperature. Cells were incubated for 18 h at 4° C. in Rabbit anti-Phospho-ERK1/2 (Cell Signaling #4377) and Mouse anti-ERK1/2 (Cell Signaling #9107) both diluted 1:800 in Odyssey Blocking Buffer. Plates were washed with 0.1% Tween-20 in PBS and then incubated with Odyssey Blocking Buffer containing IRDye 680-labeled goat anti-rabbit antibody (#926-32221; diluted 1/500) and IRDye 800CW-labeled goat anti-mouse antibody (#926-32210; diluted 1/1000). Plates were washed with 0.1% Tween-20 in PBS, all liquid was removed from the wells and the plates were scanned using a LICOR Odyssey scanner. The phospho-ERK1/2 signal was normalized to the ERK1/2 signal. Data was analyzed by non-linear regression using GraphPad Prism to determine the EC50 of binding.

Data set [3] addresses T2, S1P1 N101A (Homo sapiens, UniProt P21453, N101A).
T2 construct: expressed in transfected cells; host or cells: CHOK1
Put plainly: Phosphorylated-ERK1/2 In Cell Western, S1P1 N101A mutant in CHOK1 cells. It is filed as cell-based. On the procedure: as §1, §2, §3

Data set [4] deals with S1P1/EDG1 (Homo sapiens, UniProt P21453). Put plainly: Phosphorylated-ERK1/2 In Cell Western, wild type S1P1 in CHOK1 cells. It is filed as cell-based. The protocol:
as §3, with “The phospho-ERK1/2 signal was normalized to the ERK1/2 signal.” left out

T1 sequence (P21453 whole entry R120A/E121A): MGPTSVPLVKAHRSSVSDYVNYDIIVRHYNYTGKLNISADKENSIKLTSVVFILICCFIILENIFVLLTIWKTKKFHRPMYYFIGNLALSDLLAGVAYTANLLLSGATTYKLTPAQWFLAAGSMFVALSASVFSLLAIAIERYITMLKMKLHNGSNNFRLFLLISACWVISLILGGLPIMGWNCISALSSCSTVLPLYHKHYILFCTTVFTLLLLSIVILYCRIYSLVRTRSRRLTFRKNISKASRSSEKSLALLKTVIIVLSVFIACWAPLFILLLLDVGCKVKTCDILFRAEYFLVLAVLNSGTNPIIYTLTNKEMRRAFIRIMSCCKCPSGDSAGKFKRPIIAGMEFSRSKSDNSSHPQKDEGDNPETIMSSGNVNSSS
T2 sequence (P21453 whole entry N101A): as the sequence (P21453 whole entry R120A/E121A) above, with N101A, A120R, A121E counted along it
S1P1/EDG1, sequence (P21453 whole entry): as the sequence (P21453 whole entry R120A/E121A) above, with A120R, A121E counted along it

In the case of `CC(C)Oc1ccc(-c2nc(-c3cccc4c3CC[C@H]4N)no2)cc1C#N` [Compound 49, (R)-5-(3-(1-amino-2,3-dihydro-1H-inden-4-yl)-1,2,4-oxadiazol-5-yl)-2-isopropoxy-benzonitrile hydrochloride], in data set [1] (rat, whole blood), the bioavailability was determined as 93%.
Consider `CC(C)Oc1ccc(-c2nc(-c3cccc4c3CC[C@H]4NCCO)no2)cc1C#N` [Compound 85, (R)-5-(3-(1-(2-hydroxyethylamino)-2,3-dihydro-1H-inden-4-yl)-1,2,4-oxadiazol-5-yl)-2-isopropoxybenzonitrile], for which the “Rat - Oral bioavailability Solution” value in data set [1] was determined as 69%.
As for `CC(C)Oc1ccc(-c2nc(-c3cccc4c3CC[C@@H]4N)no2)cc1C#N` [Compound 50, (S)-5-(3-(1-amino-2,3-dihydro-1H-inden-4-yl)-1,2,4-oxadiazol-5-yl)-2-isopropoxy-benzonitrile], the entries for the “Effect of mutation on binding of compound (in words)” value in data set [2] (S1P1 R120A/E121A) and in data set [3] (S1P1 N101A) were “has no influence on the binding” and “reduces the binding”, respectively. Besides, the “Fold change in EC50 compared to wild type S1P1” value was 2 in data set [2] (S1P1 variant R120A/E121A, phospho-ERK1/2) and 32 in data set [3] (S1P1 variant N101A, phospho-ERK1/2). Moreover, the “Rat - Oral bioavailability Solution” value in data set [1] turned out to be 91%. Further, the “Phosphorylation of ERK1/2 by S1P1 agonist (in words)” value in data set [4] is listed as “induce phosphorylation of ERK1/2”.

In general, bioavailability refers to dose-corrected exposure relative to a reference, in per cent.
